Measurements: patent publication US20160030438A1, “ANTI-TUMORAL COMPOSITION COMPRISING A PI3KBETA INHIBITOR AND A RAF INHIBITOR, TO OVERCOME CANCER CELLS RESISTANCE” (SANOFI, priority 2013, published 2016)

What was measured:
Type in all cases: cell-based
[1] = system: human melanoma cell line WM-266-4; assay: In vitro pro-apoptotic activity (PARP cleavage western blot) in WM-266-4, example 2; details: 100 nM, positive control, WM-266-4, example 2
Method: The characterization of the interaction between compound (I) and compound (II) was studied using western blotting method measuring the expression of cleaved PARP which allows to investigate apoptosis by detecting the cleavage of the PARP protein.
(§1) The human melanoma WM-266-4 cell line was purchased at ATCC (Ref number CRL-1676 Batch 3272826). The WM-266-4 cells were cultured in RPMI1640 medium supplemented with 10% FBS and 2 mM L-Glutamine.
They were diluted following a 10 fold step dilution in DMSO in order to obtain a 1 mM solution. Then each solution at 10 mM and 1 mM was diluted 50-fold in culture medium containing 10% serum before being added onto cells with a 20-fold dilution factor to reach final concentrations of 10,000 nM and 1,000 nM. The final DMSO concentration was 0.1% in controls and in all treated wells.
WM-266-4 cells were seeded into 6-well microplates at 1 000 000 cells per well, in complete culture medium and incubated at 37° C., 5% CO2, overnight.
At the end of cell treatment period, adherent cells as well as cells in the cell culture supernatant were lysed for the preparation of the proteins. Cells were lysed in a lysis buffer containing Hepes 50 mM, NaCl 150 mM, Glycerol 10%, Triton 1%, pH=7.5, adding extemporaneously a cocktail of protease and phosphatase inhibitors diluted 100 fold. Protein concentrations in each sample were determined using microBCA technique according to manufacturer's instructions. Western blotting was performed loading 20 μg of proteins in each gel well, and according to the operating procedure. […] After western blotting revelation according to the operating procedure instructions, luminescence was read using FujiFilm (Ray Test) apparatus.
This instrument measures the total signal of luminescence obtained on Fujifilm machine (AU) for each selected band. Then, it subtracts the background value (BG) proportional to the size of the selected band or Area. The background is calculated from a band taken on the specific background of the western blot, to obtain the specific signal or (AU−BG) for each band. The calculation of the fold induction is performed for each treatment with compound or combination of compounds using the following formula:
Fold Induction=((AU−BG)t/(AU−BG)st)*100

[2] = system: human melanoma cell line A2058; assay: In vitro pro-apoptotic activity (PARP cleavage) in A2058 in a concentration-dependent manner, example 6; details: single agent 100 nM, A2058, example 6
Method: (§2) The characterization of the interaction between compound (I) and compound (II) was studied using western blotting method which allows investigating apoptosis by detecting the cleavage of the PARP protein.
(§3) The human melanoma A2058 cell line was purchased at ATCC (Ref number CRL-11147 Batch 5074651). The A2058 cells were cultured in DMEM High glucose medium supplemented with 10% FBS and 2 mM L-Glutamine.
(§4) Cell treatment, Western Blot experiment and calculation of apoptosis fold induction were performed according to the material and method described in example 2.

[3] = system: human melanoma cell line A2058; assay: In vitro pro-apoptotic activity (PARP cleavage western blot) in A2058, example 4
Method: as §2, §3, §4

[4] = system: human melanoma cell line WM-266-4; assay: In vitro pro-apoptotic activity (PARP cleavage) in WM-266-4 in a concentration-dependent manner, example 5; details: single agent 100 nM, WM-266-4, example 5
Method: as §2, §1
They were diluted following two 10-fold step dilution in DMSO in order to obtain a 1 mM solution and a 0.1 mM solution Then each solution at 10 mM, 1 mM or 0.1 mM was diluted 50-fold in culture medium containing 10% serum before being added onto cells with a 20-fold dilution factor to reach final concentrations of 10,000 nM, 1,000 nM and 100 nM. The final DMSO concentration was 0.1% in controls and in all treated wells.
as §4

CC(=O)O[C@@]12CO[C@@H]1C[C@H](O)[C@@]1(C)C(=O)[C@H](O)C3=C(C)[C@@H](OC(=O)[C@H](O)[C@@H](NC(=O)OC(C)(C)C)c4ccccc4)C[C@@](O)([C@@H](OC(=O)c4ccccc4)[C@H]21)C3(C)C [Taxotere]
PARP cleavage signal (AU-BG) [1]: 2054900 AU-BG
fold induction at 0.1 µM ([1]; Homo sapiens): 2.88
fold induction at 0.1 µM ([2]; Homo sapiens): 6.79
PARP cleavage signal (AU-BG) [2]: 14448019 AU-BG
PARP cleavage signal (AU-BG) ([3]; 100 nM, positive control, A2058, example 4): 3563893 AU-BG
fold induction at 0.1 µM ([3]; Homo sapiens, A2058, read-out: Fold induction of PARP cleavage): 1.66
fold induction at 0.1 µM ([4]; Homo sapiens): 1.56
PARP cleavage signal (AU-BG) [4]: 399272 AU-BG
